Test results as given in ChEMBL document CHEMBL4665638, “Second Generation Inhibitors of HIV-1 Maturation” (ACS Med Chem Lett, 2019).

Key:
[1] = Binding affinity to HIV-1 CA-SP1 cleavage site of Gag-pol protein harboring deltaV370 mutant assessed as inhibition of HIV-1 maturation; parameters: species or system Human immunodeficiency virus 1
[2] = AUC in rat for 6 hrs; assay type: ADME; parameters: time 6 hrs; conditions: in vivo
[3] = Clearance in rat at 5 mg/kg, po or 1 mg/kg, iv; assay type: ADME, organism-based; conditions: in vivo
[4] = Binding affinity to wild type HIV-1 NL4-3 CA-SP1 cleavage site of Gag-Pol protein assessed as inhibition of HIV-1 maturation; parameters: species or system Human immunodeficiency virus 1
[5] = Binding affinity to HIV-1 CA-SP1 cleavage site of Gag-Pol protein harboring V370A mutant assessed as inhibition of HIV-1 maturation; parameters: species or system Human immunodeficiency virus 1
[6] = Binding affinity to wild type HIV-1 NL4-3 CA-SP1 cleavage site of Gag-Pol protein assessed as inhibition of HIV-1 maturation in presence of human serum albumin; parameters: species or system Human immunodeficiency virus 1
[7] = AUC in rat at 5 mg/kg, po measured for 6 hrs; assay type: ADME, organism-based; parameters: time 6 hrs, dose 5 mg/kg; conditions: in vivo
[8] = tested on: Human immunodeficiency virus 1; assay: Ratio of EC50 for wild type HIV-1 NL4-3 CA-SP1 cleavage site of Gag-Pol protein in presence of human serum albumin to EC50 for wild type HIV-1 NL4-3 CA-SP1 cleavage site of Gag-Pol protein
[9] = Aqueous solubility of the compound; assay type: physicochemical
[10] = Binding affinity to HIV-1 CA-SP1 cleavage site of Gag-Pol protein harboring […] mutant assessed as inhibition of HIV-1 maturation; parameters: species or system Human immunodeficiency virus 1
[11] = Binding affinity to HIV-1 CA-SP1 cleavage site of Gag-Pol protein harboring V370M mutant assessed as inhibition of HIV-1 maturation; parameters: species or system Human immunodeficiency virus 1
[12] = Binding affinity to HIV-1 CA-SP1 cleavage site of Gag-Pol protein harboring deltaV370/Thr371Ala mutant assessed as inhibition of HIV-1 maturation; parameters: species or system Human immunodeficiency virus 1
[13] = Clearance in dog; assay type: ADME, Canis lupus familiaris; conditions: in vivo
[14] = Volume of distribution at steady state in dog; assay type: ADME, Canis lupus familiaris; conditions: in vivo, read-out: Vdss
[15] = Oral bioavailability in dog; assay type: ADME, organism-based, Canis lupus familiaris; conditions: in vivo
[16] = Volume of distribution at steady state in cynomolgus monkey; assay type: ADME, Macaca fascicularis; conditions: in vivo, read-out: Vdss
[17] = Oral bioavailability in cynomolgus monkey; assay type: ADME, organism-based, Macaca fascicularis; conditions: in vivo
[18] = Binding affinity to HIV-1 CA-SP1 cleavage site of Gag-Pol protein harboring V362I mutant assessed as inhibition of HIV-1 maturation; parameters: species or system Human immunodeficiency virus 1
[19] = Binding affinity to HIV-1 CA-SP1 cleavage site of Gag-Pol protein harboring Thr371Ala mutant assessed as inhibition of HIV-1 maturation; parameters: species or system Human immunodeficiency virus 1
[20] = Binding affinity to HIV-1 CA-SP1 cleavage site of Gag-Pol protein harboring deltaThr371 mutant assessed as inhibition of HIV-1 maturation; parameters: species or system Human immunodeficiency virus 1

Row | Structure (SMILES) | EC50 [1] [nM] | EC50 [4] [nM] | EC50 [5] [nM] | EC50 [6] [nM] | other results
1 | C=C(C)[C@@H]1CC[C@]2(C(=O)O)CC[C@]3(C)[C@H](CC[C@@H]4[C@@]5(C)CC=C(c6ccc(C(=O)O)cc6)C(C)(C)[C@@H]5CC[C@]43C)[C@@H]12 | > 3000 | – | – | – | AUC at 6 h [2]: 5.72 µM·h; clearance [3]: 1 mL/min/kg
2 | C=C(C)[C@@H]1CC[C@]2(C(=O)NCCNC(C)=O)CC[C@]3(C)[C@H](CC[C@@H]4[C@@]5(C)CC=C(c6ccc(C(=O)O)cc6)C(C)(C)[C@@H]5CC[C@]43C)[C@@H]12 | 361 | 5 | 24 | 22 | –
3 | C=C(C)[C@@H]1CC[C@]2(C(=O)NCCN3CCS(=O)(=O)CC3)CC[C@]3(C)[C@H](CC[C@@H]4[C@@]5(C)CC=C(c6ccc(C(=O)O)cc6)C(C)(C)[C@@H]5CC[C@]43C)[C@@H]12 | 60 | 2 | 6 | – | AUC at 6 h [7]: 3.99 µM·h
4 | C=C(C)[C@@H]1CC[C@]2(C(=O)NCCN(CC)CC(=O)O)CC[C@]3(C)[C@H](CC[C@@H]4[C@@]5(C)CC=C(c6ccc(C(=O)O)cc6)C(C)(C)[C@@H]5CC[C@]43C)[C@@H]12 | 64 | 3 | 9 | – | –
5 | C=C(C)[C@@H]1CC[C@]2(C(=O)N[C@@H](CN(C)C)C(=O)O)CC[C@]3(C)[C@H](CC[C@@H]4[C@@]5(C)CC=C(c6ccc(C(=O)O)cc6)C(C)(C)[C@@H]5CC[C@]43C)[C@@H]12 | > 160 | 46 | 772 | – | –
6 | C=C(C)[C@@H]1CC[C@]2(C(=O)O)CC[C@]3(C)[C@H](CC[C@@H]4[C@@]5(C)CC=C(c6ccc(C(=O)O)cc6Cl)C(C)(C)[C@@H]5CC[C@]43C)[C@@H]12 | – | 114 | > 4000 | 117 | Ratio EC50 [8]: 1
7 | C=C(C)[C@@H]1CC[C@]2(C(=O)O)CC[C@]3(C)[C@H](CC[C@@H]4[C@@]5(C)CC=C(c6ccc(C(=O)O)cc6F)C(C)(C)[C@@H]5CC[C@]43C)[C@@H]12 | – | 55 | 1400 | 50 | Ratio EC50 [8]: 1
8 | C=C(C)[C@@H]1CC[C@]2(C(=O)O)CC[C@]3(C)[C@H](CC[C@@H]4[C@@]5(C)CC=C(c6ccc(C(=O)O)c(C(=O)O)c6)C(C)(C)[C@@H]5CC[C@]43C)[C@@H]12 | – | 38 | 212 | – | –
9 | C=C(C)[C@@H]1CC[C@]2(C(=O)NCCC(=O)O)CC[C@]3(C)[C@H](CC[C@@H]4[C@@]5(C)CC=C(c6ccc(C(=O)O)cc6)C(C)(C)[C@@H]5CC[C@]43C)[C@@H]12 | > 4000 | 37 | 427 | 449 | –
10 | C=C(C)[C@@H]1CC[C@]2(C(=O)O)CC[C@]3(C)[C@H](CC[C@@H]4[C@@]5(C)CC=C(c6ccc(C(=O)O)cc6C)C(C)(C)[C@@H]5CC[C@]43C)[C@@H]12 | – | 613 | 3900 | 660 | Ratio EC50 [8]: 1
11 | C=C(C)[C@@H]1CC[C@]2(NCCN3CCS(=O)(=O)CC3)CC[C@]3(C)[C@H](CC[C@@H]4[C@@]5(C)CC=C(c6ccc(C(=O)O)c(F)c6)C(C)(C)[C@@H]5CC[C@]43C)[C@@H]12 | 10 | 3 | – | 13 | AUC at 6 h [7]: 25.5 µM·h
12 | C=C(C)[C@@H]1CC[C@]2(CNCCCN3CCS(=O)(=O)CC3)CC[C@]3(C)[C@H](CC[C@@H]4[C@@]5(C)CC=C(c6ccc(C(=O)O)cc6)C(C)(C)[C@@H]5CC[C@]43C)[C@@H]12 | – | – | – | – | AUC at 6 h [7]: 1.71 µM·h
13 | C=C(C)[C@@H]1CC[C@]2(C(=O)O)CC[C@]3(C)[C@H](CC[C@@H]4[C@@]5(C)CC[C@H](OC(=O)CC(C)(C)C(=O)O)C(C)(C)[C@@H]5CC[C@]43C)[C@@H]12 [BEVIRIMAT] | – | – | – | – | solubility [9]: < 1 µg/mL; clearance [3]: 4 mL/min/kg; EC50 [10]: 8 nM; EC50 [11]: 111 nM; EC50 [12]: > 4000 nM
14 | C=C(C)[C@@H]1CC[C@]2(NCCN3CCS(=O)(=O)CC3)CC[C@]3(C)[C@H](CC[C@@H]4[C@@]5(C)CC=C(c6ccc(C(=O)O)cc6)C(C)(C)[C@@H]5CC[C@]43C)[C@@H]12 [BMS-955176] | 13 | – | 3 | 10 | solubility [9]: < 1 µg/mL; clearance [13]: 0.13 mL/min/kg; Vd [14]: 0.43 L/kg; bioavailability [15]: 9%; Vd [16]: 0.36 L/kg; bioavailability [17]: 4%; EC50 [18]: 4 nM; EC50 [11]: 3 nM; EC50 [12]: 7 nM; EC50 [19]: 3 nM; EC50 [20]: 5 nM; AUC at 6 h [7]: 14.2 µM·h
15 | C=C(C)[C@@H]1CC[C@]2(CNCCN3CCS(=O)(=O)CC3)CC[C@]3(C)[C@H](CC[C@@H]4[C@@]5(C)CC=C(c6ccc(C(=O)O)cc6)C(C)(C)[C@@H]5CC[C@]43C)[C@@H]12 | 6 | – | – | – | –
16 | C=C(C)[C@@H]1CC[C@]2(C(=O)O)CC[C@]3(C)[C@H](CC[C@@H]4[C@@]5(C)CC=C(c6cccc(C(=O)O)c6)C(C)(C)[C@@H]5CC[C@]43C)[C@@H]12 | – | > 8000 | – | – | –
17 | C=C(C)[C@@H]1CC[C@]2(CN(C)CCCN3CCS(=O)(=O)CC3)CC[C@]3(C)[C@H](CC[C@@H]4[C@@]5(C)CC=C(c6ccc(C(=O)O)cc6)C(C)(C)[C@@H]5CC[C@]43C)[C@@H]12 | 26 | – | – | – | AUC ([7]; 6 h): 4.834 µM·h
18 | C=C(C)[C@@H]1CC[C@]2(C(=O)NCCC(C)C)CC[C@]3(C)[C@H](CC[C@@H]4[C@@]5(C)CC=C(c6ccc(C(=O)O)cc6)C(C)(C)[C@@H]5CC[C@]43C)[C@@H]12 | 1600 | 47 | 101 | – | –
19 | C=C(C)[C@@H]1CC[C@]2(CNCCN(C)C)CC[C@]3(C)[C@H](CC[C@@H]4[C@@]5(C)CC=C(c6ccc(C(=O)O)cc6)C(C)(C)[C@@H]5CC[C@]43C)[C@@H]12 | 21 | – | – | 9 | –
20 | C=C(C)[C@@H]1CC[C@]2(C(=O)NCCN(C)C)CC[C@]3(C)[C@H](CC[C@@H]4[C@@]5(C)CC=C(c6ccc(C(=O)O)cc6)C(C)(C)[C@@H]5CC[C@]43C)[C@@H]12 | 31 | – | – | – | –
